In patent publication US20260216144A1, “TARGETING MB2 OF THE MYC ONCOGENE AND ITS INTERACTION WITH TRRAP IN CANCER” (priority 2019, published 2026):

The molecules below were run against MYC:TRRAP interaction (Homo sapiens, UniProt P01106+Q9Y4A5) (assay: MYC:TRRAP in-cell luminescence complementation assay (NanoBiT; SmB-MYC 1-190 and TRRAP 2033-2283-LgB in HeLa cells)). Details: not given.
Assay type: cell-based
Method: HeLa cells plated on Greiner 96-well TC-rated white plates with clear bottoms were used for the following measurements. Reverse transfections were carried out using LipoD293™ before cells were plated. A bluescript KS' plasmid (Addgene) was used as carrier DNA for transfections, and a pcDNA3.1 EGFP plasmid (ThermoFisher) was used as a fluorescence reporter. White light-reflecting film (USA Scientific) was used to cover the bottom of the plates for luminescence measurements. Black light-absorbing film was used to cover the top of the plates for fluorescence measurements. All measurements were taken on a SpectraMax i3 instrument (Molecular Devices).
Transfections were carried out with increasing DNA amounts (1-100 ng per well) of a CMV-driven LgB plasmid and SmB in excess or vice-versa. Background luminesce for the usable range and the amount of DNA needed for vast excess of LgB or SmB were noted. Next, complementation with vast excess either LgB or SmB was used to determine the expression of each of the indicated MYC and TRRAP constructs for a range of DNA amounts per well: 10-100 ng. An optimal ratio of DNA to equalize the expression of each MYC and TRRAP pair was calculated. Then, signal-to-noise ratios were calculated for the indicated MYC and TRRAP pairs, and the pair with the highest ratio was chosen. Finally, the chosen pair was used to determine the optimal DNA transfection mixture. It was determined to be 6.7 ng of a plasmid with a MYC construct, 60 ng of a plasmid with a TRRAP construct and 33.3 ng of the pcDNA 3.1 EGFP plasmid, for each well in a 96-well plate. Unless otherwise indicated, these were the ratios of DNA transfected for this type of assay.
HeLa cells were transfected as above using LipoD293™ with a mixture of SmB-MYC 1-190, TRRAP 2033-2283-LgB, and EGFP in CMV-driven plasmids at the same optimized ratio described above. Two days post-transfection, the media in each well was replaced with fresh media containing each compound from the NCI's sets at 25 μM. Cells were incubated for 2 h with each compound, and luminescence and fluorescence measurements were recorded for each well. Changes in luminescence were normalized to fluorescence. The following pre-plated compound sets were obtained from the NCI/DTP chemical repository and used for this screen:
These chemical sets were used to discover novel small-molecule inhibitors of the MYC:TRRAP complex. SmB-MYC 1-190, TRRAP 2033-2283-LgB, and EGFP were transfected into HeLa cells. Two days post-transfection, compounds were added to the media at 25 μM and cells were incubated for 2h. Luminescence and fluorescence were recorded for each well containing one of the compounds. Changes in luminescence measurements were normalized to fluorescence measurements.
Afterwards, only molecules that reduced luminescence levels to <50% RLU were considered. This set of 46 compounds were incubated at 10 μM with vector-expressing cells. Luminescence complementation was measured and repeated in triplicate measurements. In addition, HeLa cells expressing LgB and SmB alone were incubated with the same compounds to rule out potentially artificial results due to inhibition of luciferase or its complementation. Molecules that induces any significant reduction in luminescence (<0.6) during this control assay were not considered further. Of 2947 molecules, 17 were chosen for further testing and ordered from the NCI/DTP Open Chemical Repository. FIG. 16 describes these chosen compounds.
Using the luminescence assay above as a readout for the MYC:TRRAP interaction, we used a robotic liquid handler to evaluate 2987 additional compounds (25 μM). All primary hits were counter-screened for any activity against the luciferase enzyme itself and for any effects on the expression of the fusion proteins. We set a threshold of 50% inhibition to consider compounds further. Only 17 out of 2987 passed all these criteria (0.6%). […]

MYC:TRRAP interaction, sequence (P01106 16-205): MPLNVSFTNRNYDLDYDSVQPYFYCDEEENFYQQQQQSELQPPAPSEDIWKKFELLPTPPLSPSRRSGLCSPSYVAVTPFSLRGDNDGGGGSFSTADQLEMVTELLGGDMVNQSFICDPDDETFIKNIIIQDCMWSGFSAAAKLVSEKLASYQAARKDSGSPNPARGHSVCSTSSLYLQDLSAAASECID
MYC:TRRAP interaction, sequence (Q9Y4A5 2051-2301): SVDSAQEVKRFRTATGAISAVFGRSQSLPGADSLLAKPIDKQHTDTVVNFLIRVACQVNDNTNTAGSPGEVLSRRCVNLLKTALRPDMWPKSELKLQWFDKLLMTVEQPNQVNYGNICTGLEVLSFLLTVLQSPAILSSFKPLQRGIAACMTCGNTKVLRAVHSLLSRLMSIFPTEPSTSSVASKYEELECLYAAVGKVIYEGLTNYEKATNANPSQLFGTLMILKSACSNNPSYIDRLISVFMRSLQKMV

Structure (SMILES)	% Inhibition 10 uM [%]
CC[C@H](C)[C@@H]1/N=C(\O)[C@@H](NC(=O)c2c3nc4c(C(=O)N[C@@H]5/C(O)=N/[C@@H](C(C)C)C(=O)N6CCC[C@H]6C(=O)N(C)CC(=O)N(C)[C@@H](C(C)C)C(=O)O[C@@H]5C)ccc(C)c4oc-3c(C)c(=O)c2N)[C@@H](C)OC(=O)[C@H](C(C)C)N(C)C(=O)CN(C)C(=O)[C@@H]2CCCN2C1=O [Compound 20, 2-amino-1-N-[(3S,6S,7R,10S, 16S)-3-[(2S)-butan-2-yl]-7,11,14-trimethyl-2,5,9,12,15-pentaoxo-10-propan-2-yl-8-oxa-1,4,11,14-tetrazabicyclo [14.3.0]nonadecan-6-yl]-4,6-dimethyl-3-oxo-9-N-[(3S,6S,7R, 10S,16S)-7,11,14-trimethyl-2,5,9,12,15-pentaoxo-3,10-di(propan-2-yl)-8-oxa-1,4,11,14-tetrazabicyclo [14.3.0]nonadecan-6-yl]phenoxazine-1,9-dicarboxamide]	41.4

Same assay, conditions: Table 1; 46 primary hits at 10 uM; HeLa cells; triplicate measurements

Structure (SMILES)	% Inhibition 10 uM [%]
Cc1ccc(NC(=O)c2cc3ccccc3c(/N=N/c3ccccc3O)c2O)c(C)c1 [Compound 5, N-(2,4-dimethylphenyl)-3-hydroxy-4-[(2-hydroxyphenyl)diazenyl] naphthalene-2-carboxamide]	37.24
Cc1ccc(Cl)cc1NC(=O)c1cc2ccccc2cc1O [Compound 9, N-(5-chloro-2-methylphenyl)-3-hydroxy-naphthalene-2-carboxamide]	48.59
Cc1ccc2c(c1)C=C/C(=C\C=C1/C=CC(=O)c3ncccc31)N2C [Compound 37, 5-[2-(1,6-dimethylquinolin-1-ium-2-yl)ethenyl]quinolin-8-ol]	84.83
Cc1ccc2c(c1)C(=C(C#N)C#N)CCN2 [Compound 18, 2-(6-methyl-2,3-dihydro-1H-quinolin-4-ylidene)propanedi-nitrile]	57.21
Cc1nc(/N=N/c2ccccc2)[nH]c1/N=N/c1ccccc1 [Compound 16, (5-methyl-2-phenyldiazenyl-1H-imidazol-4-yl)-phenyldiazene]	62.4
N#C/C(S)=N/c1ccc(F)cc1 [Compound 19, 1-cyano-N-(4-fluorophenyl) methanethioamide]	92.01
Cc1ccc(NC(=S)C#N)c(C)c1 [Compound 26, 1-cyano-N-(2,4-dimethylphenyl) methanethioamide]	90.89
Cc1cc2c(C(C)C)c(O)c(O)c(C=O)c2c(O)c1-c1c(C)cc2c(C(C)C)c(O)c(O)c(C=O)c2c1O [Compound 31, 7-(8-formyl-1,6,7-trihydroxy-3-methyl-5-propan-2-ylnaphthalen-2-yl)-2,3,8-trihydroxy-6-methyl-4-propan-2-ylnaphthalene-1-carbaldehyde]	68.27
COC(=O)c1cc(-c2c[nH]cc2C(=O)OCc2ccccc2)cn1S(=O)(=O)c1ccc(C)cc1 [Compound 8, methyl 1-(4-methylphenyl) sulfonyl-4-(4-phenylmethoxycar-bonyl-1H-pyrrol-3-yl)pyrrole-2-carboxylate]	33.32
CC1=C(CCC(=O)O)c2cc3nc(cc4[nH]c(cc4C)cc4[nH]c(cc1n2)cc4C)C(C)=C3CCC(=O)O [Compound 27, 3-[18-(2-carboxyethyl)-3,8,13,17-tetramethyl-22,23-dihydroporphyrin-2-yl]propanoic acid]	75.42
CN(C)c1ccc(/C=C/C(=O)c2cc(Cl)ccc2O)cc1 [Compound 35, (E)-1-(5-chloro-2-hydroxyphenyl)-3-[4-(dimethylamino)phenyl]prop-2-en-1-one]	50.79
COc1cccc2c1C(=O)c1c(O)c3c(c(O)c1C2=O)C[C@@](O)(C(C)=O)C[C@@H]3OC1CC(N(Cc2ccccc2)Cc2ccccc2)C(O)C(C)O1.Cl (stereo partly drawn) [Compound 34, (7S,9S)-9-acetyl-7-[4-(dibenzylamino)-5-hydroxy-6-methyloxan-2-yl]oxy-6,9,11-trihydroxy-4-methoxy-8,10-dihydro-7H-tetracene-5,12-dione; hydrochloride]	78.65
O=C1c2ccccc2C(=O)c2sc(Nc3ccc(Cl)cc3)nc21 [Compound 28, 2-(4-chloroanilino)benzo [f][1,3] benzothiazole-4,9-dione]	66.32
COC1=C(N)C(=O)c2nc(-c3nc(C(=O)O)c(C)c(-c4ccc(OC)c(OC)c4O)c3N)ccc2C1=O [Compound 14, 5-amino-6-(7-amino-6-methoxy-5,8-dioxoquinolin-2-yl)-4-(2-hydroxy-3,4-dimethoxyphenyl)-3-methylpyridine-2-carboxylic acid]	40.78
COC(=O)[C@H]1[C@H]2C[C@@H]3c4[nH]c5ccccc5c4CCN3C[C@H]2C[C@@H](OC(=O)c2cc(OC)c(OC)c(OC)c2)[C@@H]1OC [Compound 42, methyl (1R,15S,17R,18R, 19S,20S)-18-methoxy-17-(3,4,5-trimethoxybenzoyl) oxy-1,3,11,12,14,15,16, 17,18,19,20,21-dodecahydro-yohimban-19-carboxylate]	102.5

Same assay, conditions: Table 1; 46 primary hits at 10 uM; HeLa cells; triplicate measurements; 10 µM

Structure (SMILES)	% Inhibition 10 uM [%]
N=C1C=C(N)C(=O)c2nc(O)ccc21 [Compound 11, 7-amino-5-imino-1H-quinoline-2,8-dione]	46.89

Same assay, conditions: Table 1; 46 primary hits at 10 uM; HeLa cells; triplicate measurements; listed as 43, 10 µM

Structure (SMILES)	% Inhibition 10 uM [%]
N=C1C=C(N)C(=O)c2nc(O)ccc21 [Compound 11, 7-amino-5-imino-1H-quinoline-2,8-dione]	57.34

Same assay, conditions: Table 2; compounds with >80% similarity to compound 10 (NSC657456); 10 uM

Structure (SMILES)	% Inhibition 10 uM [%]
Oc1[nH]c2ccccc2c1/N=N/c1nc(-c2ccc(Cl)c(Cl)c2)cs1 [Compound 1025, 3-[[4-(3,4-dichlorophenyl)-1,3-thiazol-2-yl]diazenyl]-1H-indol-2-ol]	53.24
O=[N+]([O-])c1cccc(-c2csc(/N=N/c3c(O)[nH]c4ccccc34)n2)c1 [Compound 1022, 3-[[4-(3-nitrophenyl)-1,3-thiazol-2-yl]diazenyl]-1H-indol-2-ol]	54.58
CN(C)C(=S)/N=N/c1c(O)[nH]c2ccccc12 [Compound 108]	86.25
c1ccc2c(c1)=NOc1[nH]c3ccccc3c1N=2 [Compound 1039, 5H-indolo[2,3-c][2,1,5]ben-zoxadiazepine]	59.84
O=C(Cc1ccccc1)/N=N/c1c(O)[nH]c2ccccc12 [Compound 1038, N-((2-hydroxy-1H-indol-3-yl)imino]-2-phenylacetamide]	86.67
Oc1[nH]c2ccccc2c1/N=N/C(=S)N1CCCC1 [Compound 1033, N-((2-hydroxy-1H-indol-3-yl)imino] pyrrolidine-1-carbothioamide]	86.96
CCCNC(=S)N=Nc1c(O)[nH]c2ccccc12 [Compound 1032, 1-[(2-hydroxy-1H-indol-3-yl)imino]-3-propylthiourea]	88.62
O=C(Cc1csc(/N=N/c2c(O)[nH]c3ccccc23)n1)Nc1ccccc1 [Compound 1028, 2-[2-[(2-hydroxy-1H-indol-3-yl)diazenyl]-1,3-thiazol-4-y]-N-phenylacetamide]	97.46
Oc1[nH]c2ccccc2c1/N=N/C1=NCCN1 [Compound 1020, 3-(4,5-dihydro-1H-imidazol-2-yldiazenyl)-1H-indol-2-ol]	91.72
O=C(/N=N/c1c(O)[nH]c2ccccc12)Nc1ccccc1 [Compound 1013, 1-[(2-hydroxy-1H-indol-3-yl)imino]-3-phenylurea]	83.25
Cc1ccccc1/N=C(S)/N=N/c1c(O)[nH]c2ccccc12 [Compound 1034, 1-[(2-hydroxy-1H-indol-3-yl)imino]-3-(2-methylphenyl) thiourea]	111.9
O=[N+]([O-])c1ccc(/N=N/c2c(O)[nH]c3ccccc23)cc1 [Compound 109, 3-[(4-nitrophenyl)diazenyl]-1H-indol-2-ol]	54.48
